The record followed here is patent US20160039880A1 (priority 2012, published 2016).

Each structure is given as a SMILES string. Values after ≈ are worked out from the molar mass of the structure shown. Read-outs that look alike come from different tables or passages of the source.

In general, solubility refers to the concentration that dissolves in the medium under given conditions. The Ki is a dissociation constant, usually derived from enzyme kinetics or from competition with a known ligand.

A short description of series [1]: Water Solubility Assay (measured in pH 7.8 buffer).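 Also: precipitation onset detected as rise in absorbance at 650 nm across increasing concentrations, after shaking for 18 h, blank wells receiving DMSO only.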 The format is physicochemical. The note with it: kinetic from dmso stock.
Method: The aqueous solubility of a compound of Formula I in buffer (pH 7.8) was measured by recording the onset of precipitation of the compound as a function of increasing concentration. The onset of precipitation, if it occurred, was detected by an increase in absorbance at 650 nm.
Assay Buffer: 35 mM HEPES pH 7.8
Stock solutions of Control and Test Compounds: 10 mM in 100% DMSO
10 mM stock solutions of control and test compounds were prepared in 100% DMSO.
Assay buffer (247.5 μl) was placed into flat bottomed transparent 96-well plate. For blank samples DMSO (2.5 μl) was added. For test and control samples 2.5 μl of the appropriate DMSO dilution stocks were added to the appropriate well. All test and control compounds were performed in triplicate.
The plates were sealed with adhesive plate seal and shaken at 250 rpm at 25° C. for 18 h on a plate shaker.
After incubation the plate seals were taken off and any bubbles observed in wells removed. The plates were read on a SpectraMaxM5 with a 5 s pre-shake at 650 nm.
Data files were transferred to the appropriate worksheet and the solubility range of the compounds was calculated from the data.
Series [2] addresses Human recombinant cyclophilin A (Cyp A) (Homo sapiens, UniProt P62937). As to the kind of experiment: Protease-free PPIase assay.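 Also: cis to trans isomerization of SUC-AAPF-pNA by 2 nM enzyme, read as absorbance at 330 nm over 300 s at 10 °C, catalytic rate corrected for uncatalyzed background.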
Where [3] appears, read: 35 mM HEPES buffer pH 7.8, 25 °C, aqueous buffer, pH 7.8 buffer, read-out: Water Solubility Assay.

Sequence of Human recombinant cyclophilin A (Cyp A) (P62937 whole entry): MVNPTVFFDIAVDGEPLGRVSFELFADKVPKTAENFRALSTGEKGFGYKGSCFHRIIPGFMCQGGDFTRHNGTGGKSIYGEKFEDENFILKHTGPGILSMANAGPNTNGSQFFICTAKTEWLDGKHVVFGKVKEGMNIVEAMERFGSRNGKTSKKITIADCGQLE

On to `CC[C@H]1NC(=O)[C@@H]([C@H](O)[C@H](C)CCN(C)Cc2ccccn2)N(C)C(=O)[C@@H](C(C)C)N(C)C(=O)[C@@H](CC(C)C)N(C)C(=O)[C@@H](CC(C)C)N(C)C(=O)[C@H](C)NC(=O)[C@@H](C)NC(=O)[C@@H](CC(C)C)N(C)C(=O)[C@@H](C(C)C)NC(=O)[C@H](CC(C)C)N(C)C(=O)[C@@H](C)N(C)C1=O` [Compound DA, [(3R,4R,5S)-4-Hydroxy-3-methyl-5-(methylamino)-1-({pyridin-2-ylmethyl}-methylamino)-hexanoic acid]^1[(R)-methyl-Sar]^3 cyclosporin A], for which, in series [1] (setting [3]), the solubility at 18 h is 75 to 100 µM (≈ 98.3 to 131 µg/mL). In addition, the inhibitory constant (Ki) in series [2] was 4.9 nM.

Consider `CC[C@H]1NC(=O)[C@@H]([C@H](O)[C@H](C)CCN(Cc2ccccn2)Cc2ccccn2)N(C)C(=O)[C@@H](C(C)C)N(C)C(=O)[C@@H](CC(C)C)N(C)C(=O)[C@@H](CC(C)C)N(C)C(=O)[C@H](C)NC(=O)[C@@H](C)NC(=O)[C@@H](CC(C)C)N(C)C(=O)[C@@H](C(C)C)NC(=O)[C@H](CC(C)C)N(C)C(=O)[C@@H](C)N(C)C1=O` [Compound DB, [(3R,4R,5S)-1-(Bis{pyridin-2-ylmethyl}amino)-4-hydroxy-3-methyl-5-(methylamino)-hexanoic acid]^1[(R)-methyl-Sar]^3 cyclosporin A], for which, in series [1] (setting [3]), the solubility at 18 h is 75 to 100 µM (≈ 104 to 139 µg/mL). For the same molecule, in series [2], the Ki was determined as 7.4 nM.

In the case of `CC[C@H]1NC(=O)[C@@H]([C@H](O)[C@H](C)CCN(C)c2ccccc2)N(C)C(=O)[C@@H](C(C)C)N(C)C(=O)[C@@H](CC(C)C)N(C)C(=O)[C@@H](CC(C)C)N(C)C(=O)[C@H](C)NC(=O)[C@@H](C)NC(=O)[C@@H](CC(C)C)N(C)C(=O)[C@@H](C(C)C)NC(=O)[C@H](CC(C)C)N(C)C(=O)[C@@H](C)N(C)C1=O` [Compound DC, [(3R,4R,5S)-4-Hydroxy-3-methyl-5-(methylamino)-1-(methyl-phenyl-amino)-hexanoic acid]^1[(R)-methyl-Sar]^3 cyclosporin A], the solubility at 18 h in series [1] (25 °C, pH 7.8, aqueous buffer) lay in the range of 10 to 25 µM (≈ 13 to 32.4 µg/mL). Also, the Ki in series [2] is 6 nM.

Turning to `CC[C@H]1NC(=O)[C@@H]([C@H](O)[C@H](C)CCN(C)c2ccccn2)N(C)C(=O)[C@@H](C(C)C)N(C)C(=O)[C@@H](CC(C)C)N(C)C(=O)[C@@H](CC(C)C)N(C)C(=O)[C@H](C)NC(=O)[C@@H](C)NC(=O)[C@@H](CC(C)C)N(C)C(=O)[C@@H](C(C)C)NC(=O)[C@H](CC(C)C)N(C)C(=O)[C@@H](C)N(C)C1=O` [Compound DD, [(3R,4R,5S)-4-Hydroxy-3-methyl-5-(methylamino)-1-(methyl-pyridin-2-yl-amino)-hexanoic acid]^1[(R)-methyl-Sar]^3 cyclosporin A], in series [1] (25 °C, pH 7.8, aqueous buffer), the solubility at 18 h is 25 to 50 µM (≈ 32.4 to 64.8 µg/mL). The Ki in series [2] amounted to 4.8 nM.

Turning to `CC[C@H]1NC(=O)[C@@H]([C@H](O)[C@H](C)CCN(C)CCS(N)(=O)=O)N(C)C(=O)[C@@H](C(C)C)N(C)C(=O)[C@@H](CC(C)C)N(C)C(=O)[C@@H](CC(C)C)N(C)C(=O)[C@H](C)NC(=O)[C@@H](C)NC(=O)[C@@H](CC(C)C)N(C)C(=O)[C@@H](C(C)C)NC(=O)[C@H](CC(C)C)N(C)C(=O)[C@@H](C)N(C)C1=O` [Compound DE], in series [1] (25 °C, pH 7.8, aqueous buffer), the solubility at 18 h is > 100 µM. Besides, the inhibitory constant (Ki) in series [2] came to 5.8 nM.

`CC[C@H]1NC(=O)[C@@H]([C@H](O)[C@H](C)CCN(C)Cc2cccnc2)N(C)C(=O)[C@@H](C(C)C)N(C)C(=O)[C@@H](CC(C)C)N(C)C(=O)[C@@H](CC(C)C)N(C)C(=O)[C@H](C)NC(=O)[C@@H](C)NC(=O)[C@@H](CC(C)C)N(C)C(=O)[C@@H](C(C)C)NC(=O)[C@H](CC(C)C)N(C)C(=O)[C@@H](C)N(C)C1=O` [Compound DF, [(3R,4R,5S)-4-Hydroxy-3-methyl-5-(methylamino)-1-({pyridin-3-ylmethyl}-methylamino)-hexanoic acid]^1[(R)-methyl-Sar]^3 cyclosporin A]: in series [1] (setting [3]), the solubility at 18 h is > 100 µM. Also, the Ki in series [2] was 14 nM.

With `CC[C@H]1NC(=O)[C@@H]([C@H](O)[C@H](C)CCN(C)Cc2ncccn2)N(C)C(=O)[C@@H](C(C)C)N(C)C(=O)[C@@H](CC(C)C)N(C)C(=O)[C@@H](CC(C)C)N(C)C(=O)[C@H](C)NC(=O)[C@@H](C)NC(=O)[C@@H](CC(C)C)N(C)C(=O)[C@@H](C(C)C)NC(=O)[C@H](CC(C)C)N(C)C(=O)[C@@H](C)N(C)C1=O` [Compound DG, [(3R,4R,5S)-4-Hydroxy-3-methyl-5-(methylamino)-1-({pyrimidin-2-ylmethyl}-methylamino)-hexanoic acid]^1[(R)-methyl-Sar]^3 cyclosporin A], the solubility at 18 h in series [1] (setting [3]) was > 100 µM. Further, the Ki in series [2] turned out to be 8.5 nM.

`CC[C@H]1NC(=O)[C@@H]([C@H](O)[C@H](C)CCN(C)Cc2cnccn2)N(C)C(=O)[C@@H](C(C)C)N(C)C(=O)[C@@H](CC(C)C)N(C)C(=O)[C@@H](CC(C)C)N(C)C(=O)[C@H](C)NC(=O)[C@@H](C)NC(=O)[C@@H](CC(C)C)N(C)C(=O)[C@@H](C(C)C)NC(=O)[C@H](CC(C)C)N(C)C(=O)[C@@H](C)N(C)C1=O` [Compound DH, [(3R,4R,5S)-4-Hydroxy-3-methyl-5-(methylamino)-1-({pyrazin-2-ylmethyl}-methylamino)-hexanoic acid]^1[(R)-methyl-Sar]^3 cyclosporin A]: the solubility at 18 h in series [1] (setting [3]) was > 100 µM. Besides, in series [2], the Ki amounted to 9.1 nM.

`CC[C@H]1NC(=O)[C@@H]([C@H](O)[C@H](C)CCN(C)Cc2cncn2C)N(C)C(=O)[C@@H](C(C)C)N(C)C(=O)[C@@H](CC(C)C)N(C)C(=O)[C@@H](CC(C)C)N(C)C(=O)[C@H](C)NC(=O)[C@@H](C)NC(=O)[C@@H](CC(C)C)N(C)C(=O)[C@@H](C(C)C)NC(=O)[C@H](CC(C)C)N(C)C(=O)[C@@H](C)N(C)C1=O` [Compound DI, [(3R,4R,5S)-4-Hydroxy-3-methyl-5-(methylamino)-1-({3-methyl-3H-imidazol-4-ylmethyl}-methylamino)-hexanoic acid]^1[(R)-methyl-Sar]^3 cyclosporin A]: the solubility at 18 h in series [1] (setting [3]) is > 100 µM. The Ki in series [2] worked out at 4.3 nM.

As for `CC[C@H]1NC(=O)[C@@H]([C@H](O)[C@H](C)CCN(C)Cc2ccnn2C)N(C)C(=O)[C@@H](C(C)C)N(C)C(=O)[C@@H](CC(C)C)N(C)C(=O)[C@@H](CC(C)C)N(C)C(=O)[C@H](C)NC(=O)[C@@H](C)NC(=O)[C@@H](CC(C)C)N(C)C(=O)[C@@H](C(C)C)NC(=O)[C@H](CC(C)C)N(C)C(=O)[C@@H](C)N(C)C1=O` [Compound DJ, [(3R,4R,5S)-4-Hydroxy-3-methyl-5-(methylamino)-1-({2-methyl-2H-pyrazol-3-ylmethyl}-methylamino)-hexanoic acid]^1[(R)-methyl-Sar]^3 cyclosporin A], the solubility at 18 h in series [1] (setting [3]) was > 100 µM. The Ki in series [2] was found to be 5.4 nM.

`CC[C@H]1NC(=O)[C@@H]([C@H](O)[C@H](C)CCN(C)CC(C)C#N)N(C)C(=O)[C@@H](C(C)C)N(C)C(=O)[C@@H](CC(C)C)N(C)C(=O)[C@@H](CC(C)C)N(C)C(=O)[C@H](C)NC(=O)[C@@H](C)NC(=O)[C@@H](CC(C)C)N(C)C(=O)[C@@H](C(C)C)NC(=O)[C@H](CC(C)C)N(C)C(=O)[C@@H](C)N(C)C1=O` (stereo partly drawn) [Compound DK, [(3R,4R,5S)-1-({2-Cyano-propyl}-methyl-amino)-4-hydroxy-3-methyl-5-(methylamino)-hexanoic acid]^1[(R)-methyl-Sar]^3 cyclosporin A]: in series [1] (25 °C, pH 7.8, aqueous buffer), the solubility at 18 h was > 100 µM. Also, the Ki in series [2] amounted to 13 nM.

Turning to `CC[C@H]1NC(=O)[C@@H]([C@H](O)[C@H](C)CCN(C)Cc2ccncc2)N(C)C(=O)[C@@H](C(C)C)N(C)C(=O)[C@@H](CC(C)C)N(C)C(=O)[C@@H](CC(C)C)N(C)C(=O)[C@H](C)NC(=O)[C@@H](C)NC(=O)[C@@H](CC(C)C)N(C)C(=O)[C@@H](C(C)C)NC(=O)[C@H](CC(C)C)N(C)C(=O)[C@@H](C)N(C)C1=O` [Compound DL, [(3R,4R,5S)-4-Hydroxy-3-methyl-5-(methylamino)-1-({pyridin-4-ylmethyl}-methylamino)-hexanoic acid]^1[(R)-methyl-Sar]^3 cyclosporin A], in series [1] (setting [3]), the solubility at 18 h was > 100 µM. For the same molecule, the inhibitory constant (Ki) in series [2] came out at 5.7 nM.

`CC[C@H]1NC(=O)[C@@H]([C@H](O)[C@H](C)CCN(C)CCC(F)(F)F)N(C)C(=O)[C@@H](C(C)C)N(C)C(=O)[C@@H](CC(C)C)N(C)C(=O)[C@@H](CC(C)C)N(C)C(=O)[C@H](C)NC(=O)[C@@H](C)NC(=O)[C@@H](CC(C)C)N(C)C(=O)[C@@H](C(C)C)NC(=O)[C@H](CC(C)C)N(C)C(=O)[C@@H](C)N(C)C1=O` [Compound DN, [(3R,4R,5S)-4-Hydroxy-3-methyl-5-(methylamino)-1-({3,3,3-trifluoropropyl}-methyl-amino)-hexanoic acid]^1[(R)-methyl-Sar]^3 cyclosporin A]: the solubility at 18 h in series [1] (25 °C, pH 7.8, aqueous buffer) was in the range of 25 to 50 µM (≈ 32.9 to 65.8 µg/mL). Besides, in series [2], the inhibition constant (Ki) is 5.5 nM.

For the molecule `CC[C@H]1NC(=O)[C@@H]([C@H](O)[C@H](C)CCN(C)Cc2cc(C(F)(F)F)nn2C)N(C)C(=O)[C@@H](C(C)C)N(C)C(=O)[C@@H](CC(C)C)N(C)C(=O)[C@@H](CC(C)C)N(C)C(=O)[C@H](C)NC(=O)[C@@H](C)NC(=O)[C@@H](CC(C)C)N(C)C(=O)[C@@H](C(C)C)NC(=O)[C@H](CC(C)C)N(C)C(=O)[C@@H](C)N(C)C1=O` [Compound DO, [(3R,4R,5S)-4-Hydroxy-3-methyl-5-(methylamino)-1-({1-methyl-3-trifluoromethyl-2H-pyrazol-5-ylmethyl}-methylamino)-hexanoic acid]^1[(R)-methyl-Sar]^3 cyclosporin A], in series [1] (setting [3]), the solubility at 18 h lay within 10 to 25 µM (≈ 13.8 to 34.5 µg/mL). Besides, in series [2], the Ki was determined as 2.8 nM.

In turn, `CC[C@H]1NC(=O)[C@@H]([C@H](O)[C@H](C)CCN2CCOC(C)(C)C2)N(C)C(=O)[C@@H](C(C)C)N(C)C(=O)[C@@H](CC(C)C)N(C)C(=O)[C@@H](CC(C)C)N(C)C(=O)[C@H](C)NC(=O)[C@@H](C)NC(=O)C(CC(C)C)N(C)C(=O)[C@@H](C(C)C)NC(=O)[C@H](CC(C)C)N(C)C(=O)[C@@H](C)N(C)C1=O` (stereo partly drawn) [Compound DS, [(3R,4R,5S)-1-(3,3-Dimethyl-morpholin-4-yl)-4-hydroxy-3-methyl-5-(methylamino)-hexanoic acid]^1[(R)-methyl-Sar]^3 cyclosporin A] displayed a solubility at 18 h in series [1] (25 °C, pH 7.8, aqueous buffer) of 75 to 100 µM (≈ 97.8 to 130 µg/mL). Besides, the inhibition constant Ki in series [2] is 12 nM.
